# Measurements as given in article PMC8419995, “In vitro and in vivo efficacy of thiacloprid against Echinococcus multilocularis” (Parasites & Vectors, 2021).
# Like-named read-outs stand apart in the source and are kept apart here.
# What was measured:
# [1] = test system: collagen I and III, MMP1, MMP3, MMP9, MMP13; experiment: Collagen and MMP expression in the host-lesion microenvironment (TEM, Sirius red, qPCR, western blot); format: in vivo; settings: infected BALB/c mice, 6 weeks oral treatment
# Procedure: The metacestodes were fixed with 4% paraformaldehyde and embedded in paraffin to make sections with a thickness of […]. The sections were dewaxed with water, stained with Picrosirius red for 10 min, rinsed and dehydrated with anhydrous ethanol, and sealed with neutral balsam after the xylene was transparent. Each section of 400× visual field image was randomly collected. The ratio of the area of all images collected to the area of the visual field was measured using the ImageJ analysis system, and the percentage of collagen fibre was calculated.
# The variations in the microstructure of the protoscoleces or metacestodes were observed under an electron microscope. […] They were washed twice in PBS and then fixed for 3 h with 2.5% glutaraldehyde (pH = 7.2); next, they underwent 2 h post-fixation in 2% OsO4 (SPI-CHEM, West Chester, PA, USA). Subsequently, the samples were washed in double-distilled water and treated with 1% uranyl acetate for 25 min. After the samples were washed again in double-distilled water, dehydration was conducted in ethanol at continuous gradients (30–50–70–80–90–95–100%) over a period of 10 min. For SEM analysis, the dehydrated samples were dipped into hexamethyldisiloxane and then air-dried in a fume hood. The sample was observed under a Hitachi SU8100 scanning electron microscope (Tokyo, Japan) after gold spraying. For TEM analysis, the dehydrated samples passed through a dehydrating agent, and an epoxy resin (SPI-CHEM) permeated and polymerized at 60 °C overnight. A 50-nm ultra-thin section was prepared and then loaded on a 300-mesh copper grid. It was stained with uranyl acetate and lead citrate (SPI-CHEM). The sample was observed under a Hitachi HT7700 transmission electron microscope. To reduce the bias, electron microscopy was observed by professionals in the case of an unknown group.
# Total RNA was extracted with TRIzol Reagent (Thermo Fisher Scientific, Waltham, MA, USA) according to the manufacturer’s instructions. The purity and concentrations of RNA were quantified using NanoDrop 2000 absorbance measurements at 260/280 nm. Total RNA was converted into cDNA sequences using the FastKing gDNA Dispelling RT SuperMix Kit (TIANGEN Biotech), and RT-qPCR was performed using the RealUniversal Color PreMix Kit (TIANGEN Biotech) on an ABI QuantStudio 5 system (Applied Biosystems, Waltham, MA, USA). The specific primers are shown in Additional file 4: Table S1. The PCR cycling conditions were as follows: pre-denaturation at 95 °C for 15 min followed by 40 cycles at 95 °C for 10 s and 60 °C for 34 s. The relative mRNA expression levels were quantified using the 2^−ΔΔCT method. RPS18 served as an internal control.
# A total protein extraction kit (Solarbio) was used to extract cell or tissue total protein. The protein concentration was determined by the protein quantitative assay kit (Thermo Fisher Scientific). Then, electrophoresis was performed with 20–50 μg of protein sample. The protein was separated by sodium dodecyl sulfate polyacrylamide gel electrophoresis (SDS-PAGE) and transferred to a 0.22 μm PVDF membrane (Merck Millipore, Darmstadt, Germany). The PVDF membrane was blocked with 5% of nonfat powdered milk in Tris-buffered saline Tween 20 (TBST) for 1 h at room temperature. The membrane incubation with primary antibodies was performed at 4 °C overnight. The antibody information is listed in Additional file 5: Table S2. The membrane was washed with TBST and incubated with HRP-labeled secondary antibodies (1:5000, Abclonal, Wuhan, China) for 1 h at room temperature. Blotted membranes were visualized using enhanced chemiluminescence reagents (Thermo Fisher Scientific). Protein expression was depicted as the intensity of each protein relative to that of β-actin using ImageJ software.
# [2] = test system: E. multilocularis metacestodes; experiment: In vivo treatment of mice experimentally infected with E. multilocularis metacestodes; design: species or system Echinococcus multilocularis
# Procedure: (§1) In vitro-grown metacestode vesicles were pressed through a 500 µm mesh and washed three times with sterile PBS. The parasite tissue was then taken up in an equal volume of sterile PBS. Each mouse was intraperitoneally injected with 200 μl suspension. Seven mice were injected with 200 μl PBS as the control group. Twenty-eight infected mice were randomly distributed into four groups (7 mice/group): the untreated group was not administered any drug; the ABZ group was treated with ABZ orally (100 mg/kg/day); and the Thia15 group and Thia30 group received thiacloprid orally (15 mg/kg/day and 30 mg/kg/day). Treatments of mice started 2 weeks post-infection, and treatments were administered daily for 6 weeks. After 6 weeks of treatment, whole blood via the orbital sinus was collected from mice and the animals were euthanized by CO2. Blood samples were incubated at 37 °C for 1 h and centrifuged at 3500 rpm for 10 min at 4 °C. The serum was harvested and stored at –20 °C for IL-2, IL-4, IL-10 and IgE detection. All metacestode tissues were collected, and the total wet weight of metacestodes per mice was determined. Furthermore, the content of cytokines in microcyst fluid was detected by enzyme-linked immunosorbent assay (ELISA). Several metacestode tissue specimens were processed for transmission electron microscopy (TEM) and histopathological experiments.
# Tissues from experimental animals were washed in PBS and fixed in 4% paraformaldehyde at room temperature for […]. On the next day, they were dehydrated, embedded, and sliced into 5-μm sections. After dewaxing and dehydrating, sections were stained with hematoxylin for 2–5 min, and re-stained with eosin for 15 s. They were sealed with neutral gum and observed under a BX51 microscope (Olympus, Tokyo, Japan).
# A Periodic Acid Schiff Stain Kit (Solarbio, Beijing, China) was used to show the PAS-positive laminated layer characteristic of E. multilocularis metacestodes. The section (5 μm) was dewaxed in xylene and rehydrated in 100%, 95%, 80%, and 75% alcohol baths. Staining was then carried out according to the kit instructions.
# [3] = test system: IL-2, IL-4, IL-10 and IgE; experiment: ELISA of cytokines and IgE in infected mice; format: in vivo; settings: infected BALB/c mice, 6 weeks oral treatment
# Procedure: as §1
# ELISA was employed to detect serum IL-2, IL-4, IL-10 and IgE following the manufacturer's instructions. Mouse collagen I and collagen III ELISA kits were used to measure the levels of collagen I and collagen III in the cell culture supernatant after intervention with thiacloprid. All ELISA kits were provided by Elabscience Biotechnology Co., Ltd., Wuhan, China. The OD value at 450 nm was read with a Tecan Infinite M200 PRO enzyme reader (Männedorf, Switzerland), and the concentration was calculated according to the standard curve.
# [4] = test system: acetylcholinesterase; experiment: Acetylcholinesterase activity (Ellman) in extracts of protoscoleces, metacestodes and germinal cells; format: biochemical, Echinococcus multilocularis; settings: extract; thiacloprid 5 μM, 37 °C 10 min; BW284c51 positive control
# Procedure: The effects of thiacloprid on the acetylcholinesterase activity of E. multilocularis protoscoleces, metacestodes and germinal cells were determined according to a previously described method. The protoscoleces, metacestode and germinal cells were washed twice with PBS and homogenized with an electric homogenizer in precooled PBS. Centrifugation of the homogenates was performed at 100,000×g for 30 min. The protein concentration of the supernatant was determined by the modified Lowry method according to the instructions, and the concentration was adjusted to 2 mg/ml. Thiacloprid (5 μM) was added to the extract and incubated at 37 °C for 10 min. The extract was supplemented with 0.1% DMSO as control. Subsequently, acetylcholinesterase activity was assessed according to Ellman’s procedure using a microplate with 260 µl of 0.1 M PBS buffer pH 8.0, 10 µl of 10 mM dithiobisnitrobenzoic acid solution, 2.5 µl of 75 mM substrate (acetylthiocholine iodide) and 25 µl of the sample treated with thiacloprid. The OD increment was measured at 412 nm using an Infinite M200 PRO reader (Tecan). Each experiment was conducted three times. BW284c51 (CAS number: 402-40-4, Sigma) was used as a positive control.
# [5] = test system: Reuber rat hepatoma (RH) cells; experiment: alamarBlue cytotoxicity assay, RH cells; format: cell-based; settings: 120 h, 5 days
# Procedure: (§2) An alamarBlue assay was used to assess the toxicity of thiacloprid to confluent and pre-confluent mammalian cells in vitro [29]. Human foreskin fibroblasts (HFF, Procell) and rat hepatoma cells (RH, Procell) were seeded into 96-well cell culture plates in DMEM supplemented with 10% FBS and 1% penicillin–streptomycin at 37 °C and 5% CO2. For detecting the growth inhibitory effects of confluent cells, HFF and RH cells were seeded at 10,000 cells per well and 50,000 cells per well, respectively. After overnight culture, thiacloprid or PZQ was added and diluted in serial concentrations (0, 0.6, 1.2, 2.5, 5, 10, 20, 40, 80 and 160 μM). For detecting growth inhibitory effects on proliferating cells, cells were seeded at 1000 (HFF) and 5000 (RH) cells per well. Thiacloprid was added after 5 h of cell attachment. To measure the viability of the cells after treatment for 5 days, the alamarBlue assay was employed and viability calculated as described previously.
# [6] = test system: Human foreskin fibroblasts (HFF); experiment: alamarBlue cytotoxicity assay, HFF; format: cell-based; settings: Fibroblast, 120 h, 5 days
# Procedure: as §2
# [7] = test system: E. multilocularis metacestodes; experiment: PGI assay (phosphoglucose isomerase release) on metacestode vesicles; format: cell-based, Echinococcus multilocularis; settings: Echinococcus multilocularis, 120 h, read-out: EC50 against E. multilocularis metacestode by the PGI assay
# Procedure: The efficacy of thiacloprid against the E. multilocularis metacestode was evaluated by applying a phosphoglucose isomerase (PGI) assay that measures the release of the enzyme phosphoglucose isomerase upon physical impairment of metacestodes. In brief, medium without phenol red (DMEM, 1% penicillin/streptomycin sulfate, 2 mM L-glutamine) was added to the same volume of vesicles and distributed to 48-well (12–15 per vesicles) plates. Subsequently, metacestodes were incubated for 5 days with different concentrations (0, 0.06, 1.2, 2.5, 5, 10, 20, 40, 80 and 160 μM) of thiacloprid or praziquantel (PZQ), after which PGI release was quantified exactly as described in Stadelmann et al.. Triton X-100 (0.1% in PBS) was applied as a positive control (maximal release of vesicle fluid). Each condition was tested in biological triplicate. After 5 days of incubation, 200 μl medium supernatant was collected from each well and stored at − 20 °C until further measurements were performed. PGI measurements were performed as described earlier, except that an Infinite M200 PRO reader (Tecan, Männedorf, Switzerland) was used to measure the increase in absorbance at 340 nm. PGI activity was calculated using the EC50 calculator (https://www.aatbio.com/tools/ec50-calculator) from the linear regression of the enzyme reaction over time and presented as a percentage relative to the values obtained by treatment of vesicles with 0.1% Triton X-100.
# [8] = test system: E. multilocularis germinal cells; experiment: CellTiter-Glo viability assay on germinal cells; format: cell-based, Echinococcus multilocularis; settings: Echinococcus multilocularis, 120 h; 5 days; CellTiter-Glo; read-out: IC50 against germinal cells
# Procedure: To evaluate the activity of thiacloprid against parasitic stem cells, germinal cells from in vitro metacestode vesicles were investigated as described by Spiliotis et al.. Briefly, 20 units of cells were distributed into a black 384-well plate. Different concentrations of thiacloprid or PZQ (0, 0.06, 1.2, 2.5, 5, 10, 20, 40, 80 and 160 μM) were added to the cells. After culture at 37 °C for 5 days under a humid nitrogen atmosphere, 25 μl CellTiter-Glo containing 1% Triton X-100 was added. The plates were incubated at room temperature in the dark for 15 min. After the total destruction of the cellular aggregates, luminescence was measured using an Infinite M200 PRO reader (Tecan), and 0 μM values were set to 100% viability. The IC50 values were calculated using an online IC50 calculator after logit-log transformation. Four independent replicates were conducted.
smiles,measurement,setting,value
"CCCSc1ccc2nc(NC(=O)OC)[nH]c2c1 [ABZ, albendazole]",Collagen fiber deposition in the host-lesion microenvironment (TEM),[1],can promote
same,"mRNA expression of MMP1, MMP3, MMP9 and MMP13 in the microenvironment",[1]; qPCR,significantly inhibited
same,mRNA and protein expression levels of collagen I and III in the host-lesion microenvironment,"[1]; qPCR, western blot",increased
same,"Protein expression levels of MMP1, MMP3, MMP9 and MMP13",[1]; western blot,decreased
same,HE staining of metacestodes from treated mice,"[2]; 6 weeks oral treatment, thiacloprid 15 or 30 mg/kg/day, ABZ 100 mg/kg/day",germinal cells could still be observed
same,Wet weight of the metacestodes,"[2]; infected BALB/c mice, ABZ 100 mg/kg/day orally, 6 weeks, untreated 6.49 ± 1.18 g",1.85 ± 0.94 g
same,"Expression of IL-2, IL-4 and IL-10 in serum compared with the untreated group",[3],consistent variations
same,Expression of IgE in serum compared with the untreated group,[3],consistent variations
C=CC[N+](C)(C)c1ccc(CCC(=O)CCc2ccc([N+](C)(C)CC=C)cc2)cc1.[Br-].[Br-] [BW284c51],"Acetylcholinesterase activity in protoscoleces, metacestode vesicles and germinal cells",[4],inhibited
"O=C(C1CCCCC1)N1CC(=O)N2CCc3ccccc3C2C1 (stereo not drawn) [PZQ, praziquantel]",IC50,"[5]; confluent cells, read-out: IC50 on confluent RH cells",25.3 ± 6.32 µM
same,IC50,"[5]; pre-confluent cells, read-out: IC50 on pre-confluent RH cells",11.6 ± 3.52 µM
same,IC50,"[6]; confluent cells, read-out: IC50 on confluent HFF",53.2 ± 11.1 µM
same,IC50,"[6]; pre-confluent cells, read-out: IC50 on pre-confluent HFF",6.71 ± 1.88 µM
same,EC50,[7],7.41 ± 2.09 µM
same,IC50,[8],2.59 ± 0.33 µM
